# Results: patent EP0189941A2, “Antibiotic compositions” (Bristol-Myers Squibb Company, priority 1985, dated 1986)
# Like-named read-outs stand apart in the source and are kept apart here.
# Key:
# [1] = dry state
# [2] = Hygroscopicity; type: physicochemical; conditions: in words
# [3] = pH of unit dosage forms reconstituted with Sterile Water for Injection; type: physicochemical; conditions: diluted with Sterile Water for Injection, U.S.P. to 333 mg of cefbuperazone activity per ml
# [4] = Intravenous toxicity test (LD50); conditions: mouse, in vivo, mice, dosing solution 333 mg of cefbuperazone activity per ml, parentheses = 95% confidence limits
# Method: Intravenous toxicity tests were conducted in Swiss-Webster mice using the sodium salt of cefbuperazone and the compositions of the present invention. In each case, the dosing solution contained 333 mg of cefbuperazone activity per ml.
# [5] = test system: weanling female Sprague-Dawley rats; experiment: Rat paw-lick test for pain on injection; type: in vivo; conditions: pH 5.3; 0.1 ml subplantar, 333 mg activity per ml; mean 0-3 minutes after injection ± Standard Error
# Method: The test animals were weanling female Sprague-Dawley rats. The test solutions were injected into the subplantar tissue of the right or left hind paw, using a syringe with a 27 gauge, 1/2-inch needle. […] The paw-lick response, an indicator of the pain caused by the injection, was recorded for each rat for three minutes following the injection. A paw-licking episode is defined as a licking response followed by a turning of the head away from the paw or five seconds of uninterrupted licking.
# [6] = Stability in the dry state (% loss on storage at elevated temperature); conditions: 100°C - 1 day, listed as Lyophilized anhydrous sodium cefbuperazone
# [7] = Source text: The most preferred pH range of the reconstituted solution is about 4 to about 5, because pain upon injection normally increases with […].
# For this reason, it is not possible to give absolute gram amounts of cefbuperazone and lysine, arginine, lysine acetate and/or arginine acetate to produce a specific pH. The amount of each ingredient can readily be determined for individual batches of the two components by titration of the cefbuperazone with the other component.
# [8] = physchem; conditions: dry state, % Loss
smiles,measurement,setting,value
CCN1CCN(C(=O)NC(C(=O)NC2(OC)C(=O)N3C(C(=O)O)=C(CSc4nnnn4C)CSC32)C(C)O)C(=O)C1=O (stereo not shown) [Anhydrous cefbuperazone free acid],% Loss,[1]; 72 h,7.8%
same,% Loss,[1]; 168 h,4.1%
same,% Loss,[1]; 672 h,3.4%
CCN1CCN(C(=O)NC(C(=O)NC2(OC)C(=O)N3C(C(=O)O)=C(CSc4nnnn4C)CSC32)C(C)O)C(=O)C1=O (stereo not shown) [Cefbuperazone free acid hemiacetonate],hygroscopicity,[2],non- hygroscopic
same,% Loss,[1]; 48 h,0%
same,% Loss,[1]; 336 h,0%
CCN1CCN(C(=O)NC(C(=O)NC2(OC)C(=O)N3C(C(=O)O)=C(CSc4nnnn4C)CSC32)C(C)O)C(=O)C1=O (stereo not shown) [sodium cefbuperazone],pH of Solution,[3],5.3
same,LD50,[4],> 5000 mg/kg
same,Paw-Lick Response,[5],5.20 ± 1.31 (10)
same,% Loss,[1]; 72 h,37.2%
same,% Loss,[1]; 336 h,38.0%
same,% Loss,[1]; 1344 h,35.0%
same,% Loss,[6],melts/decomposes
CCN1CCN(C(=O)NC(C(=O)NC2(OC)C(=O)N3C(C(=O)O)=C(CSc4nnnn4C)CSC32)C(C)O)C(=O)C1=O (stereo not shown) [Cefbuperazone free acid dihydrate],water solubility,[7],insufficiently water-soluble
same,pH at which solution of the cefbuperazone takes place,"[7]; 264.4 mg suspended in 10 ml of water, titrated with aqueous L(+) lysine",~3.5
same,% Loss,[1]; 24 h,+ 4.5%
same,% Loss,[1]; 48 h,+ 3.3%
same,% Loss,[1]; 336 h,+ 4.6%
same,% Loss,[1]; 1344 h,+ 2.2%
same,degraded at 168 h,[8],3.7%
same,degraded at 840 h,[8],0%
same,degraded at 1008 h,[8],1.8%
